Source: patent US20230339882A1, “SHP2 INHIBITOR AND COMPOSITION AND APPLICATION THEREOF” (Betta Pharmaceuticals Co., Ltd., priority 2020, published 2023)

Legend:
SHP2 = SHP2 (Homo sapiens (Human), UniProt Q06124); test: SHP2 allosteric inhibitory enzyme activity assay (DiFMUP fluorescence); assay type: biochemical; details: read-out: SHP2 enzymatic activity IC50
Text: Example A: SHP2 Allosteric Inhibitory Enzyme Activity Assay
SHP2 is allosterically activated by binding of a bis-tyrosyl-phosphorylated peptide to its Src homology 2 (SH2) domain. This later activation step results in the release of the autoinhibitory interface of SHP2, which in turn activates the SHP2 protein tyrosine phosphatase (PTP) and is available for substrate recognition and reaction catalysis. The catalytic activity of SHP2 was monitored using the surrogate DiFMUP in a rapid fluorescence assay format.
experiment procedure: • (1) Compound preparation: • The compounds of the present invention (10 mM stock solution) were diluted to appropriate times with 100% DMSO, and the final test concentrations of the compounds of the present invention were 10 µM, 3.3333 µM, 1.1111 µM, 0.3704 µM, 0.1235 µM, 0.0412 µM, 0.0137 µM, 0.0046 µM, 0.0015 µM, 0.00 µM; • (2) Prepare the enzyme reaction working solution: • Perform SHP2 enzymatic assays in 96-well black polystyrene plates (flat bottom, low flange, non-binding surface) (Perki Elmer, Cat#6005270) at room temperature using a final reaction volume of 50 µL and the following assay buffer conditions: 60 mM HEPES, 75 mM NaCl, 75 mM KCl, 0.05% BRIJ-35, 1 mM EDTA, 5 mM DTT. • (3) Enzyme-catalyzed reaction and data monitoring: • Add the compound of the present invention to the corresponding 96-well plate, and set the blank test well without compound and enzyme only with buffer. Thaw SHP2 Activating Peptide (IRS1_pY1172(dPEG8)pY1222) on ice, add 25 µM to each well, then add 0.2 ng of SHP2 protein sample to the corresponding well plate and incubate at room temperature for 1 hour. The surrogate substrate DiFMUP (Invitrogen, Cat #D6567) was added to the reaction and allowed to react for 1 hour at room temperature. Fluorescence signals were monitored using a microplate reader (Envision, Perki Elmer) using excitation and emission wavelengths of 340 nm and […], respectively. • (4) Data analysis: • Calculation Formula: • [formula]
Among them: Conversion_sample is the conversion rate reading of the sample; Conversion_min is the average value of blank control wells, representing the conversion rate readings of wells without enzymatic activity; Conversion_max is the mean ratio of positive control wells, representing the conversion rate readings of wells without compound inhibition. The log(inhibitor) vs. response-Variable slope of the analysis software GraphPad Prism was used to fit the dose-response curve, and the IC50 value of the compound for the enzymatic activity was calculated.

leukemia cells MV-4-11 = test: Cell proliferation assay, CELL TITER-GLO (CTG) luminescence, MV-4-11; assay type: cell-based
Method: (§1) Example B: Cell Proliferation Assay
(§2) The effects of the compounds of the invention on the proliferation of leukemia cells MV-4-11 and lung cancer cells NCI-H358 were evaluated using in vitro cell assays. The detection method used in the experiment is the CELL TITER-GLO (CTG) luminescence method, which can detect the number of viable cells by quantifying ATP. Because ATP participates in a variety of enzymatic reactions in vivo, it is an indicator of the metabolism of living cells, and its content directly reflects the number and state of cells. During the experiment, CellTiter-Glo™ reagent was added to the cell culture medium to measure the luminescence value. The value is proportional to the amount of ATP, and ATP is positively related to the number of living cells, so the cell viability can be examined by detecting the ATP content.
(§3) experiment procedure: • (1) Cell plating: • Take a bottle of MV-4-11 cells in logarithmic growth phase, resuspend the cells by centrifugation and count them. After adjusting the cell density, they were seeded into a 96-well plate (Corning #3917). After culturing in a 5% CO2 incubator for 24 hrs, the compound of the present invention was added for treatment; • Take a bottle of NCI-H358 cells in logarithmic growth phase, digest and resuspend the cells, count them, adjust the cell density, and inoculate them into a 96-well transparent ultra-low adsorption cell culture plate (Corning #3474), inoculate 2000 cells per well. The plate was placed in an incubator at 37° C. and 5% CO2 for 24 hrs, and then the compound of the present invention was added for treatment; • (2) Cell compound treatment: • An appropriate amount of the compound of the present invention was prepared for cell treatment. The final concentration of the compound from high to low was 1000 nM, 333.3 nM, 111.1 nM, 37.04 nM, 12.35 nM, 4.115 nM, 1.372 nM, 0.4572 nM, 0.1524 nM, and 0 nM. The plate was placed in a 37° C., 5% CO2 incubator for 120 hrs. Only adding medium without cell wells was set as the blank group; the group with compound concentration of 0 nM was the zero-adjusting group. • (3) CTG detection: • After NCI-H358 cells were cultured for 96 hrs, 50 µL of CellTiter-Glo® Luminescent Cell Viability Assay solution was added to each well, shaken gently for 2 mins, and incubated at room temperature for 10 mins. The cell reaction system was transferred to a white-bottomed 96-well plate. Read the detection value of each well on a multi-function microplate reader. • After MV-4-11 cells were cultured for 120 hrs, 50 µL of CellTiter-Glo® Luminescent Cell Viability Assay solution was added to each well, gently shaken for 2 mins, and incubated at room temperature for 10 mins. Check the value. • (4) Data analysis: • Calculate the inhibition rate from the luminescence value readings, • [formula]
(§4) The log(inhibitor) vs. response-Variable slope of GraphPad Prism was fitted to dose-response curves and IC50s of compounds that inhibited cell proliferation were calculated.

[1] = test system: lung cancer cells NCI-H358; test: Cell proliferation assay, CELL TITER-GLO (CTG) luminescence, NCI-H358; assay type: cell-based; details: cultured for 96 hrs
Method: as §1, §2, §3, §4

[2] = Homo sapiens, MV4-11, cultured for 120 hrs
[3] = Homo sapiens, NCI-H358, ultra-low adsorption plate

IC50 (SHP2) [nM] | IC50 (leukemia cells MV-4-11; [2]) [nM] | IC50 [1, 3] [nM] | Compound | IC50 (leukemia cells MV-4-11; cultured for 120 hrs) [nM] | IC50 ([1]; ultra-low adsorption plate) [nM]
3.5 | 2.8 | 25 | CC(=O)Nc1cccc(NCC#Cc2cnc(N3CCC4(CC3)Cc3ccccc3[C@H]4N)c(CO)n2)c1 [Compound A65, (S)-N-(3-((3-(5-(1-amino-1,3-dihydrospiro[indene-2,4′-piperidin]-1′-yl)-6-(hydroxylmethyl)pyrazin-2-yl)prop-2-yn-1-yl)amino)phenyl)a cetamide] | – | –
15 | – | – | NC(=O)c1nc(C#CCOc2ccc3c(c2)C(=O)NC3)cnc1N1CCC2(CC1)Cc1ccccc1[C@H]2N [Compound A42] | – | –
– | 0.9 | 2.1 | N[C@@H]1c2ccccc2CC12CCN(c1ncc(C#CCNc3ccc4c(c3)NC(=O)CC4)nc1CO)CC2 [Compound A64, (S)-7-((3-(5-(1-amino-1,3-dihydrospiro[indene-2,4′-piperidin]-1′-yl)-6-(hydroxymethyl)pyrazin-2-yl)prop-2-yn-1-yl)amino)-3,4-dihydroq uinolin-2(1H)-one] | – | –
– | 1.8 | 3.5 | CNC(=O)c1ccc(OCC#Cc2cnc(N3CCC4(CC3)Cc3ccccc3[C@H]4N)c(CO)n2)cc1 [Compound A72, (S)-4-((3-(5-(1-amino-1,3-dihydrospiro[indene-2,4′-piperidin]-1′-yl)-6-(hydroxymethyl)pyrazin-2-yl)prop-2-yn-1-yl)oxy)-N-methylbenzamide] | – | –
– | 1 | 0.9 | N[C@@H]1c2ccccc2CC12CCN(c1ncc(C#CCOc3ccc4[nH]ncc4c3)nc1CO)CC2 [Compound A67, (S)-(6-(3-((1H-Indazol-5-yl)oxy)prop-1-yn-1-yl)-3-(1-amino-1,3-dihydrospiro[Indene-2,4′-piperidin]-1 ‘-yl)pyrazin-2-yl)methanol] | – | –
– | 0.7 | 2.1 | Nc1nc2cc(OCC#Cc3cnc(N4CCC5(CC4)Cc4ccccc4[C@H]5N)c(CO)n3)ccc2o1 [Compound A69, (S)-(3-(1-amino-1,3-dihydrospiro[inden-2,4′-piperidin]-1′-yl)-6-(3-((2-Aminobenzo[d]oxazol-5-yl)oxy)prop-1-yn-1-yl)pyrazin-2-yl)met hanol] | – | –
– | 14 | 48 | CN(C)C(=O)c1cccc(OCC#Cc2cnc(N3CCC4(CC3)Cc3ccccc3[C@H]4N)c(CO)n2)c1 [Compound A36, (S)-3-((3-(5-(1-amino-1,3-dihydrospiro[indene-2,4′-piperidin]-1′-yl)-6-(hydroxymethyl)pyrazin-2-yl)prop-2-yn-1-yl)oxy)-N,N-dimethylb enzamide] | – | –

Continued, compound first:

Compound | IC50 (SHP2) [nM] | IC50 (leukemia cells MV-4-11; [2]) [nM] | IC50 [1, 3] [nM] | IC50 (leukemia cells MV-4-11; cultured for 120 hrs) [nM] | IC50 ([1]; ultra-low adsorption plate) [nM]
COc1ccc(OCC#Cc2cnc(N3CCC4(CC3)Cc3ccccc3[C@H]4N)c(CO)n2)cc1 [Compound A09, (S)-(3-(1-amino-1,3-dihydrospiro [indene-2,4′-piperidine]-1′-yl)-6-(3-(4-methoxyphenoxy)prop-1-yn-1-yl)pyrazin-2-yl) methanol] | 0.9 | 2.6 | 4.9 | – | –
CNC(=O)c1cccc(OCC#Cc2cnc(N3CCC4(CC3)Cc3ccccc3[C@H]4N)c(CO)n2)c1 [Compound A35, (S)-3-((3-(5-(1-amino-1,3-dihydrospiro[indene-2,4′-piperidine]-1′-yl)-6-(hydroxymethyl)pyrazin-2-yl)prop-2-yn-1-yl)oxy)-N-methylben zamide] | – | 3 | 3.6 | – | –
CC(=O)Nc1cccc(OCC#Cc2cnc(N3CCC4(CC3)Cc3ccccc3[C@H]4N)n(C)c2=O)c1 [Compound A34, (S)-N-(3-((3-(2-(1-amino-1,3-dihydrospiro[indene-2,4′-piperidin]-1′-yl)-1-methyl-6-oxo-1,6-dihydropyrimidin-5-yl)prop-2-yn-1-yl)oxy)phenyl)acetamide] | – | 25 | 51 | – | –
N[C@@H]1c2ccccc2CC12CCN(c1ncc(C#CCOc3cccc(Cl)c3F)nc1CO)CC2 [Compound A05, (S)-(3-(1-amino-1,3-dihydrospiro[indene-2,4′-piperidin]-1′-yl)-6-(3-(3-chloro-2-fluorophenoxy)prop-1-yn-1-yl)pyrazin-2-yl)methanol] | – | 14 | 15 | – | –
(S)-(3-(1-amino-1,3-dihydrospiro[ indene-2,4′-piperidin]-1′-yl)-6-(3-( 4-morpholinoloxy)prop-1-yn-1-yl )pyrazin-2-yl)methanol [Compound A20] | 3.8 | – | – | 12 | 14
COc1ccc(NCC#Cc2cnc(N3CCC4(CC3)Cc3ccccc3[C@H]4N)c(CO)n2)cc1OC [Compound A47, (S)-(3-(1-amino-1,3-dihydrospiro [indene-2,4′-piperidin]-1′-yl)-6-(3-((3,4-dimethoxyphenyl)amino)prop-1-yn-1-yl)pyrazin-2-yl)] | 4 | – | – | 17 | 48
CC(=O)N1CCN(c2ccc(OCC#Cc3cnc(N4CCC5(CC4)Cc4ccccc4[C@H]5N)c(CO)n3)cc2)CC1 [Compound A21, (S)-1-(4-(4-(3-(5-(1-amino-1,3-dihydrospiro [indene-2,4 ‘-piperidine]-1′-yl) -6-(hydroxymethyl)pyrazin-2-yl)prop-2-yn-1-yl)oxy)piperazin-1-yl)ethane-1-one] | 2.1 | – | – | 11 | 12
CC(=O)c1cccc(OCC#Cc2cnc(N3CCC4(CC3)Cc3ccccc3[C@H]4N)c(CO)n2)c1 [Compound A16, (S)-1-(3-((3-(5-(1-amino-1,3-dihydrospiro[indene-2,4′-piperidin]-1′-yl)-6-(hydroxymethyl)pyrazin-2-yl)prop-2-yn-1-yl)oxy)phenyl)etha n-1-one] | – | 6.9 | 11 | – | –
COc1ccccc1OCC#Cc1cnc(N2CCC3(CC2)Cc2ccccc2[C@H]3N)c(CO)n1 [Compound A10, (S)-(3-(1-amino-1,3-dihydrospiro[indene-2,4′-piperidin]-1′-yl)-6-(3-(2-methoxyphenoxy)prop-1-yn-1-yl)pyrazin-2-yl)methanol] | – | 4.4 | 4.3 | – | –
N[C@@H]1c2ccccc2CC12CCN(c1ncc(C#CCOc3ccc(C(F)(F)F)nc3)nc1CO)CC2 [Compound A70, (S)-(3-(1-amino-1,3-dihydrospiro[indene-2,4′-piperidin]-1′-yl)-6-(3-( (6-(trifluoromethyl)pyridin-3-yl)oxy)prop-1-yn-1-yl)pyrazin-2-yl)m ethanol] | – | 6.2 | 17 | – | –
